In article PMC6792352, “Limited Chemical Structural Diversity Found to Modulate Thyroid Hormone Receptor in the Tox21 Chemical Library” (Environmental Health Perspectives, 2019):
Counter-ions that a name gives are not always drawn.

Assay: in vitro
Details: rat, gh3-tre-luc cells, AC50 (uM) modified / 1000

Row | SMILES | CC50 at 24 h
1 | CC(C)NCC(O)COc1ccccc1-n1cccc1 (centres unmarked) [Isamoltan] | > 50 µM
2 | C[C@H](O)CN(C)C [(S)-(+)-1-Dimethylamino-2-propanol] | > 50 µM
3 | CCN(CC)CCNC(=O)c1cc(S(C)(=O)=O)ccc1OC [Tiapride hydrochloride] | > 20 µM
4 | CC(C)=CCCC(C)CC(=O)O (centres unmarked) [Citronellic acid] | > 90 µM
5 | O=c1nn[nH]c2ccccc12 [1,2,3-Benzotriazin-4(1H)-one] | > 90 µM
6 | CC(=O)Oc1ccc(C2(c3ccc(OC(C)=O)cc3)C(=O)Nc3ccccc32)cc1 [Oxyphenisatin acetate] | > 50 µM
7 | CC1CC(C)C(=O)C1=O (centres unmarked) [3,5-Dimethyl-1,2-cyclopentanedione] | > 90 µM
8 | CCN(CC)CCNC(=O)c1cc(Cl)c(N)cc1OC [Metoclopramide] | > 50 µM
9 | Cc1cc2nc3c(=O)[nH]c(=O)nc-3n(C[C@H](O)[C@H](O)[C@H](O)CO)c2cc1C [Riboflavin] | > 90 µM
10 | CCNC(=O)NCc1cccc(Cl)c1 [Lozilurea] | > 50 µM
11 | CC(C)(C#N)c1cc(Cn2cncn2)cc(C(C)(C)C#N)c1 [Anastrozole] | > 30 µM
12 | CCCCN(CCCC)CCCCCCN(CCCC)CCCC [N,N,N',N'-Tetrabutyl-1,6-hexanediamine] | > 90 µM
13 | Cc1c(O)c(=O)ccn1C [Deferiprone] | > 50 µM
14 | CC(=O)c1ccc2c(c1)[C@H](NC(=O)c1ccc(F)cc1)[C@@H](O)C(C)(C)O2 [Carabersat] | 51.8 µM
15 | COC(=O)c1ccc(C=O)cc1 [Methyl 4-formylbenzoate] | > 90 µM
16 | O=Cc1ccc(F)cc1 [4-Fluorobenzaldehyde] | > 90 µM
17 | CCCCCCCCCC[N+](C)(CCCCCCCCCC)CCC[Si](OC)(OC)OC [Disiquonium chloride] | 25.6 µM
18 | CC(C)(O)C(=O)c1ccc(OCCO)cc1 [2-Hydroxy-1-[4-(2-hydroxyethoxy)phenyl]-2-methylpropan-1-one] | > 90 µM
19 | CCC=CCCCCO (stereo in doubt) [(Z)-5-Octen-1-ol] | > 90 µM
20 | OCC(F)(F)F [2,2,2-Trifluoroethanol] | > 100 µM
21 | CC(C)=CCC/C(C)=C\CO [(2Z)-3,7-Dimethylocta-2,6-dien-1-ol] | > 90 µM
22 | C=CC(=O)NCNC(=O)C=C [N,N'-Methylenebisacrylamide] | > 90 µM
23 | O=S(=O)(O)c1cc(Cl)c(Cl)cc1Cl [2,4,5-Trichlorobenzenesulfonic acid] | > 90 µM
24 | CCNCCO [2-(Ethylamino)ethanol] | > 90 µM
25 | CC(=O)CN(CC(C)=O)N=O [N-Nitrosobis(2-oxopropyl)amine] | > 90 µM

Row | SMILES | CC50 at 24 h
26 | CNC1CCCN(c2c(F)cc3c(=O)c(C(=O)O)cn(C4CC4)c3c2OC)C1 (centres unmarked) [Balofloxacin] | > 50 µM
27 | O=C1CC2(CCCC2)CC(=O)N1CCNCC1COc2ccccc2O1 (centres unmarked) [Binospirone mesylate] | 41.9 µM
28 | C#C[C@]1(OC(C)=O)CC[C@H]2[C@@H]3CCC4=CC(=O)CC[C@@H]4[C@H]3CC[C@@]21C [Norethindrone acetate] | > 50 µM
29 | CC(=O)NC[C@H]1CN(c2ccc(N3CCOCC3)c(F)c2)C(=O)O1 [Linezolid] | > 50 µM
30 | CC12CC3CC(C)(C1)CC(N)(C3)C2 [Memantine] | 38.1 µM
31 | C=C(C)C(=O)OCCC(C)OC(=O)C(=C)C (centres unmarked) [1,3-Butyleneglycol dimethacrylate] | > 90 µM
32 | O=C(O)Cn1c(=O)n(Cc2ccc(Br)cc2F)c(=O)c2ccc(Cl)cc21 [Zenarestat] | > 90 µM
33 | O=C(O)c1c(Cl)ccc2cc(Cl)cnc12 [Quinclorac] | > 90 µM
34 | O=C(O)/C=C/c1c[nH]cn1 [Urocanic acid] | > 90 µM
35 | O=C1CCCCCCCCCCOCCCCO1 [12-Oxahexadecanolide] | > 90 µM
36 | Nc1ccccc1[N+](=O)[O-] [2-Nitroaniline] | > 90 µM
37 | O=C(O)c1ccccc1Nc1cccc(C(F)(F)F)c1 [Flufenamic acid] | > 50 µM
38 | O=C(c1ccc(Cl)cc1)c1ccc(Cl)cc1 [4,4'-Dichlorobenzophenone] | > 90 µM
39 | CC(Cc1ccccc1)(NC(=O)CN)c1ccccc1 (centres unmarked) [Remacemide hydrochloride] | > 50 µM
40 | CCC(=O)OCC(=O)[C@@]1(OC(=O)CC)[C@H](C)C[C@H]2[C@@H]3CCC4=CC(=O)C=C[C@]4(C)[C@@]3(F)[C@@H](O)C[C@@]21C [Dexamethasone dipropionate] | > 50 µM
41 | CC(C)=CCC/C(C)=C/COC=O [(2E)-3,7-Dimethylocta-2,6-dien-1-yl formate] | > 90 µM
42 | CC(C)CCCCCOC(=O)CCS [Isooctyl 3-mercaptopropionate] | > 90 µM
43 | N[C@@H]1CCCC[C@H]1N [1,2-Cyclohexanediamine] | > 90 µM
44 | O=[N+]([O-])c1ccc(O)c2ncccc12 [Nitroxoline] | 4.94 µM
45 | CC(C)Cc1ccc([C@@H](C)C(=O)NS(C)(=O)=O)cc1 [Reparixin] | > 50 µM
46 | O[C@@H](c1cc(C(F)(F)F)nc2c(C(F)(F)F)cccc12)[C@H]1CCCCN1 [Mefloquine hydrochloride] | 5.17 µM
47 | Oc1cccc(Cl)c1 [3-Chlorophenol] | > 90 µM
48 | Cc1ccc(S(=O)(=O)NC(=O)NN2CCCCCC2)cc1 [Tolazamide] | > 90 µM
49 | CC(=O)OC(c1ccccc1)C(Cl)(Cl)Cl (centres unmarked) [2,2,2-Trichloro-1-phenylethyl acetate] | > 90 µM
50 | CCCCCCCCCCCCOCCO [2-(Dodecyloxy)ethanol] | > 90 µM

Row | SMILES | CC50 at 24 h
51 | O=C(Cc1cccs1)N[C@@H]1C(=O)N2C(C(=O)[O-])=C(C[n+]3ccccc3)CS[C@H]12 [Cephaloridine] | > 50 µM
52 | Cc1ccc(N)c([N+](=O)[O-])c1 [4-Methyl-2-nitroaniline] | > 90 µM
53 | CC(=O)Nc1ccc(N)cc1 [4-Aminoacetanilide] | > 90 µM
54 | C=C1C[C@H]2[C@@H]3C=C(C)C4=CC(=O)CC[C@]4(C)[C@H]3CC[C@]2(C)[C@@]1(OC(C)=O)C(C)=O [Melengestrol acetate] | > 60 µM
55 | COC(=O)CC[C@H](N)C(=O)O [(5)-Methyl L-glutamate] | > 50 µM
56 | C[C@]12C[C@H](O)[C@H]3[C@@H](CCC4=CC(=O)CC[C@@]43C)[C@@H]1CC[C@@H]2C(=O)CO [Corticosterone] | > 90 µM
57 | CC(Cl)=CCCl [1,3-Dichloro-2-butene] | > 90 µM
58 | COc1ccc(Br)c(C)c1 [1-Bromo-4-methoxy-2-methylbenzene] | > 90 µM
59 | Cc1ccccc1OCC1CO1 (centres unmarked) [o-Cresyl glycidyl ether] | > 90 µM
60 | C[N+]1(CCC(C(N)=O)(c2ccccc2)c2ccccc2)CCCCC1 [Fenpiverinium bromide] | > 50 µM
61 | O=C1NC(=O)[C@@H]2CC=CC[C@H]12 [1,2,3,6-Tetrahydrophthalimide] | > 90 µM
62 | CCCC[N+](C)(CCCC)CCCC [N,N-Dibutyl-N-methylbutan-1-aminium chloride] | > 90 µM
63 | CC(C)SCc1ccco1 [Furfuryl isopropyl sulfide] | > 40 µM
64 | CC(C)=CCCC(C)=CC#N [Citralva] | > 90 µM
65 | C=C(C)C(=O)OC1CC(C)CC(C)(C)C1 (centres unmarked) [3,3,5-Trimethylcyclohexyl 2-methylprop-2-enoate] | > 90 µM
66 | c1ccncc1 [Pyridine hydrochloride] | > 90 µM
67 | CC(=O)OC1CC(C)OC(C)O1 (centres unmarked) [Dimethoxane] | > 90 µM
68 | CC(S)C(C)S (centres unmarked) [2,3-Butanedithiol] | > 100 µM
69 | Cc1ccc(C(=O)c2cc(O)c(O)c([N+](=O)[O-])c2)cc1 [Tolcapone] | 72.4 µM
70 | N[C@@H](C=O)[C@@H](O)[C@@H](O)[C@H](O)CO [Galactosamine hydrochloride] | > 90 µM
71 | C=CCCCCCCC=C [1,9-Decadiene] | > 90 µM
72 | Fc1ccc(Br)cc1 [1-Bromo-4-fluorobenzene] | > 90 µM
73 | Nc1ccc(S(=O)(=O)NC(=O)c2ccccc2)cc1 [Sulfabenzamide] | > 20 µM
74 | OP(O)c1ccccc1 [Phenylphosphinic acid] | > 90 µM

Same assay, conditions: rat, gh3-tre-luc cells, AC50 (uM) modified / 1000, Tox21_110001=Tox21_111257; viability, 1 nM T3 present, 24 h

Row | SMILES | CC50 at 24 h
75 | CNC(=O)OCC[N+](C)(C)C [Methylcarbamylcholine chloride] | > 50 µM

Same assay, conditions: rat, gh3-tre-luc cells, AC50 (uM) modified / 1000, Tox21_110001=Tox21_200670; viability, 1 nM T3 present, 24 h

Row | SMILES | CC50 at 24 h
76 | O=[N+]([O-])c1ccc(Cl)c(Cl)c1Cl [2,3,4-Trichloronitrobenzene] | > 90 µM

Same assay, conditions: rat, gh3-tre-luc cells, AC50 (uM) modified / 1000, Tox21_110001=Tox21_200998; viability, 1 nM T3 present, 24 h

Row | SMILES | CC50 at 24 h
77 | CC(O)CCl (centres unmarked) [1-Chloro-2-propanol, technical grade (~75% 1-chloro-2-propanol; ~25% 2-chloro-1-propanol)] | > 90 µM

Same assay, conditions: rat, gh3-tre-luc cells, AC50 (uM) modified / 1000, Tox21_110001=Tox21_201505; viability, 1 nM T3 present, 24 h

Row | SMILES | CC50 at 24 h
78 | C1CC2OC2CC1C1CO1 (centres unmarked) [4-Vinyl-1-cyclohexene dioxide] | > 90 µM

Same assay, conditions: rat, gh3-tre-luc cells, AC50 (uM) modified / 1000, Tox21_110001=Tox21_202725; viability, 1 nM T3 present, 24 h

Row | SMILES | CC50 at 24 h
79 | CN1[C@@H]2CC[C@H]1CC(O)C2 (some centres unmarked) [Tropine] | > 100 µM

Same assay, conditions: rat, gh3-tre-luc cells, AC50 (uM) modified / 1000, Tox21_110001=Tox21_300394; viability, 1 nM T3 present, 24 h

Row | SMILES | CC50 at 24 h
80 | O=C(O)C(F)(F)C(F)(F)C(F)(F)C(F)(F)C(F)(F)F [Perfluorohexanoic acid] | > 90 µM

Same assay, conditions: rat, gh3-tre-luc cells, AC50 (uM) modified / 1000, Tox21_110001=Tox21_300778; viability, 1 nM T3 present, 24 h

Row | SMILES | CC50 at 24 h
81 | CNC(=O)Oc1cccc(N=CN(C)C)c1 [Formetanate hydrochloride] | > 90 µM

Same assay, conditions: rat, gh3-tre-luc cells, AC50 (uM) modified / 1000, Tox21_110001=Tox21_301423; viability, 1 nM T3 present, 24 h

Row | SMILES | CC50 at 24 h
82 | CNC(=O)Oc1ccc(N(C)C)c(C)c1 [Aminocarb] | > 90 µM

Same assay, conditions: rat, gh3-tre-luc cells, AC50 (uM) modified / 1000, Tox21_110001=Tox21_301750; viability, 1 nM T3 present, 24 h

Row | SMILES | CC50 at 24 h
83 | CC(C)(C)c1cc([N+](=O)[O-])cc(C(C)(C)C)c1O [2,6-Di-tert-butyl-4-nitrophenol] | 11 µM
